Data taken from US4348264A, “Photocatalyzed process for producing carbapenams and carbapen-2-ems” (Pfizer Inc., priority 1981, dated 1982).

Key:
Experiment in all cases: Standard disc-plate method, zone of inhibition
Type in all cases: cell-based
[1] = tested on: Bacillus subtilis; settings: 25 microgram discs; for zone of inhibition at 25 µg/disc: Bacillus subtilis
Description: (§1) The utility of the various compounds as intermediates to other compounds of the present invention will be evident from the preceding discussion. The antibacterial activity of these compounds, reflecting their utility in the control of susceptible bacterial infections in man and animals, as animal feed additives for promotion of growth, or as preservatives of materials biodegraded by susceptible microorganisms, is best measured by the standard disc-plate method routinely employed in clinical laboratories for determining the sensitivity of microorganisms to antimicrobial substances. Sensitivity discs are prepared by dipping a standard 6.25 mm. paper disc into a solution of the compound to be tested (conc. 1 mg./ml.) in a volatile solvent (e.g. methylene chloride) and the disc dried, producing discs containing approximately 25 microg. of the compound. The discs are placed on the surface of agar growth media seeded with the test microorganism, previously plated into Petri dishes. The plates are incubated overnight at 35°-37° C. Activity of the test compound is reflected by a zone of inhibition of bacterial growth around the test disc. The diameter of this zone provides a quantitative measure of the activity of the antibacterial substance. The activity of various compounds of the present invention is summarized in Table I. For comparison, results obtained with 10 microg. discs of ampicillin and penicillin G are included as positive controls.

[2] = tested on: Escherichia coli; settings: 25 microgram discs; for zone of inhibition at 25 µg/disc: Escherichia coli
Description: as §1

[3] = tested on: Staphylococcus aureus (Antibiotic Resistant); settings: Staphylococcus aureus; 25 microgram discs; antibiotic resistant
Description: as §1

[4] = tested on: Staphylococcus aureus; settings: 25 microgram discs; for zone of inhibition at 25 µg/disc: Staphylococcus aureus
Description: as §1

[5] = tested on: Vibrio percolans; settings: Comamonas terrigena, 25 microgram discs
Description: as §1

[6] = tested on: Micrococcus luteus; settings: 25 microgram discs; for zone of inhibition at 25 µg/disc: Micrococcus luteus
Description: as §1

SMILES | zone of inhibition at 25 µg/disc [1] | zone of inhibition at 25 µg/disc [2] | zone of inhibition at 25 µg/disc [3] | zone of inhibition at 25 µg/disc [4] | zone of inhibition at 25 µg/disc [5] | zone of inhibition at 25 µg/disc [6] | Zone of Inhibition [1] | Zone of Inhibition [2] | Zone of Inhibition [6] | Zone of Inhibition [4]
CC1=C(C(=O)OCOC(=O)C(C)(C)C)N2C(=O)C(NC(=O)c3c(-c4ccccc4)noc3C)C2C1=O (stereo not shown) [MPI H POM CH3 O II, Pivaloyloxymethyl 2-Methyl-6-(5-methyl-3-phenylisoxazole-4-carboxamido)-1-oxocarbapen-2-em-3-carboxylate] | 21 mm | 0 mm | 9 mm | 0 mm | 0 mm | – | – | – | – | –
COC1=C(C(=O)O)N2C(=O)C(C(C)O)C2C1O (stereo not drawn) [HET H H OCH3 H OH I, Sodium 6-alpha-(1-Hydroxyethyl)-1-hydroxy-2-methoxycarbapen-2-em-3-carboxylate] | 22 mm | 11 mm | – | 27 mm | – | 42 mm | – | – | – | –
CC(=O)OC1C(C)=C(C(=O)O)N2C(=O)CC12 (stereo not shown) [H H H CH3 H OAc II, Sodium 1-Acetoxy-2-methylcarbapen-2-em-3-carboxylate] | 13 mm | 0 mm | 8 mm | – | 18 mm | – | – | – | – | –
COC1(NC(=O)COc2ccccc2)C(=O)N2C(C(=O)OCOC(=O)C(C)(C)C)=C(C)C(=O)C21 (stereo not shown) [PMA OMe POM CH3 O II, Pivaloyloxymethyl 6-Methoxy-2-methyl-1-oxo-6-(2-phenoxyacetamido)carbapen-2-em-3-carboxylate] | 33 mm | 0 mm | 0 mm | 8 mm | 0 mm | – | – | – | – | –
Cc1onc(-c2ccccc2)c1C(=O)NC1C(=O)N2C(C(=O)OCOC(=O)C(C)(C)C)C(C)C(=O)C12 (stereo not shown) [MPI H POM CH3 O I, Pivaloyloxymethyl 2-Methyl-6-(5-methyl-3-phenylisoxazole-4-carboxamido)-1-oxocarbapenam-3-carboxylate] | 15 mm | 0 mm | 11 mm | 0 mm | 0 mm | – | – | – | – | –
CC1=C(C(=O)OCOC(=O)C(C)(C)C)N2C(=O)CC2C1O (stereo not shown) [H H POM CH3 H OH II, Pivaloyloxymethyl 1-Hydroxy-2-methylcarbapen-2-em-3-carboxylate] | 15 mm | 10 mm | 13 mm | 15 mm | – | 10 mm | – | – | – | –
CC(=O)OC1C(C)C(C(=O)O)N2C(=O)C(NC(=O)COc3ccccc3)C12 (stereo not shown) [PMA H H CH3 H OAc I, 1-Acetoxy-2-methyl-6-(2-phenoxyacetamido)carbapenam-3-carboxylic Acid] | 0 mm | 0 mm | 0 mm | 0 mm | – | 0 mm | – | – | – | –
CC(=O)OCC1=C(C(=O)OCOC(=O)C(C)(C)C)N2C(=O)CC2C1=O (stereo not shown) [H H POM CH2OAc O II, Pivaloyloxymethyl 2-Acetoxymethyl-1-oxocarbapen-2-em-3-carboxylate] | – | – | 12 mm | 0 mm | – | – | – | – | – | –
CC1=C(C(=O)OCOC(=O)C(C)(C)C)N2C(=O)C(C(C)O)C2C1O (stereo not drawn) [HET H POM CH3 H OH I, pivaloyloxymethyl 6-alpha-(1-hydroxyethyl)-1-hydroxy-2-methylcarbapen-2-em-3-carboxylate] | – | – | – | – | – | – | 24 mm | 14 mm | 31 mm | 27 mm
CC(=O)OC1C(C)=C(C(=O)OCOC(=O)C(C)(C)C)N2C(=O)CC12 (stereo not shown) [H H POM CH3 H OAc II, Pivaloyloxymethyl 1-Acetoxy-2-methylcarbapen-2-em-3-carboxylate] | 14 mm | – | 0 mm | 13 mm | – | 0 mm | – | – | – | –
